# US10214546B2, “Btk inhibitors” (MERCK SHARP & DOHME CORP., priority 2014, dated 2019)
# Where two headings read alike, the source gives them in different places.
# Tests used:
# [1] = molecular target: BTK enzyme (recombinant full-length BTK, hBTK) (Homo sapiens (Human), UniProt Q06187); test: BTK enzymatic activity LANCE TR-FRET assay; assay type: biochemical; details: 50 pM hBTK, 25 μM ATP, 2 μM biotin-A5-peptide; compound range 1 μM to 0.017 nM; read-out: BTK binding IC50
# [2] = system: adenosine uptake into HeLa cells; test: [3H]Adenosine uptake assay in HeLa cells; assay type: cell-based; details: [3H]adenosine accumulation in HeLa cells, compound range 10 μM to 0.032 nM, read-out: ADU inhibition IC50
# Summary of the method: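 HeLa cells in HBSS + 5% FBS were preincubated 30 min at ambient temperature with compound (ten-point 1:3 series, 10 µM–[…] final), then given [3H]adenosine (added as a 500 nM solution) for 60 min. Cell-associated label was read by scintillating-plate proximity counting; IC50 from 4-parameter fit of cps versus log concentration.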
# Chain of BTK enzyme (recombinant full-length BTK, hBTK) (Q06187 whole entry): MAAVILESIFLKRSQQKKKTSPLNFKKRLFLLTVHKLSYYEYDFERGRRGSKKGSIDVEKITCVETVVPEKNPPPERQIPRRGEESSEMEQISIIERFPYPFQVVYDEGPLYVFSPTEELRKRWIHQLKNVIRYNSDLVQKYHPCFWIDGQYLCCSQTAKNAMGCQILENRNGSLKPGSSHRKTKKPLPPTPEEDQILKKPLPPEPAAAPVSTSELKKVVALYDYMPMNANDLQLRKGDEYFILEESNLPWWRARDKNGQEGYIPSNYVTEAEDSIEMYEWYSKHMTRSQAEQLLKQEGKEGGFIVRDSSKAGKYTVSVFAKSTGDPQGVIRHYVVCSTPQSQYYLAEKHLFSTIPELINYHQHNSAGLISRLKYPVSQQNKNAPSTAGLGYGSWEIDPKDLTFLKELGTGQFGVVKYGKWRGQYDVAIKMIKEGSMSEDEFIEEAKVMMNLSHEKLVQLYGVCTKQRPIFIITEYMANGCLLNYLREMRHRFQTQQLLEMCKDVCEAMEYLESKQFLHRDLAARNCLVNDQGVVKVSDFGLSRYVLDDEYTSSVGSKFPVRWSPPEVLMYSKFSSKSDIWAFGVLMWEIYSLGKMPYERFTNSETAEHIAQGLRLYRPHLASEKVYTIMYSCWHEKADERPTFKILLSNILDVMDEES
SMILES,IC50 [1] [nM],IC50 [2] [nM],"IC50 ([2]; Homo sapiens, HeLa) [nM]"
"COc1cc(-c2nc([C@@H]3CC[C@H]4CCC(=O)N4C3)n3ccnc(N)c23)ccc1C(C)(O)c1cccc(C(F)(F)F)c1 (stereo partly drawn) [Example 65, (6R,8aS)-6-[8-amino-1-(4-{1-hydroxy-1-[3-(trifluoromethyl)phenyl]ethyl}-3-methoxyphenyl)imidazo [1,5-a]pyrazin-3-yl]hexahydroindolizin-3(2H)-one]",7,10000,
"C[C@@](O)(c1ccc(-c2nc([C@@H]3CC[C@H]4CCC(=O)N4C3)n3ccnc(N)c23)cc1)c1cccc(N2CCOCC2)c1 [Example 66, (6R,8aS)-6-(8-amino-1-{4-[(1R)-1-hydroxy-1-(3-morpholin-4-ylphenyl)ethyl]phenyl}imidazo[1,5-a]pyrazin-3-yl)hexahydroindolizin-3(2H)-one]",796,,4190
"C[C@](O)(c1ccc(-c2nc([C@@H]3CC[C@H]4CCC(=O)N4C3)n3ccnc(N)c23)cc1)c1cccc(N2CCOCC2)c1 [Example 67, (6R,8aS)-6-(8-amino-1-{4-[(1S)-1-hydroxy-1-(3-morpholin-4-ylphenyl)ethyl]phenyl}imidazo[1,5-a]pyrazin-3-yl)hexahydroindolizin-3(2H)-one]",15.4,,8500
"C[C@](O)(c1ccc(-c2nc([C@@H]3CC[C@H]4CCC(=O)N4C3)n3ccnc(N)c23)cc1)c1ccccc1F [Example 68, (6R,8aS)-6-(8-amino-1-{4-[(1S)-1-(2-fluorophenyl)-1-hydroxyethyl]phenyl}imidazo[1,5-a]pyrazin-3-yl)hexahydroindolizin-3(2H)-one]",460,,5550
"C[C@@](O)(c1ccc(-c2nc([C@@H]3CC[C@H]4CCC(=O)N4C3)n3ccnc(N)c23)cc1)c1ccccc1F [Example 69, (6R,8aS)-6-(8-amino-1-{4-[(1R)-1-(2-fluorophenyl)-1-hydroxyethyl]phenyl}imidazo[1,5-a]pyrazin-3-yl)hexahydroindolizin-3(2H)-one]",4.9,,6470
"C[C@](O)(c1ccc(-c2nc([C@@H]3CC[C@H]4CCC(=O)N4C3)n3ccnc(N)c23)cc1)c1cccc(C(F)F)c1 [Example 70, (6R,8aS)-6-[8-amino-1-(4-{(1S)-1-[3-(difluoromethyl)phenyl]-1-hydroxyethyl}phenyl)imidazo[1,5-a]pyrazin-3-yl]hexahydroindolizin-3(2H)-one]",30.4,,1010
"C[C@@](O)(c1ccc(-c2nc([C@@H]3CC[C@H]4CCC(=O)N4C3)n3ccnc(N)c23)cc1)c1cccc(C(F)F)c1 [Example 71, (6R,8aS)-6-[8-amino-1-(4-{(1R)-1-[3-(difluoromethyl)phenyl]-1-hydroxyethyl}phenyl)imidazo[1,5-a]pyrazin-3-yl]hexahydroindolizin-3(2H)-one]",0.19,,5120
"Nc1nccn2c([C@@H]3CC[C@H]4CCC(=O)N4C3)nc(-c3ccc(C(O)c4cccc(C(F)(F)F)c4)cc3)c12 (stereo partly drawn) [Example 72, (6R,8aS)-6-[8-amino-1-(4-{hydroxy[3-(trifluoromethyl)phenyl]methyl}phenyl)imidazo [1,5-a]pyrazin-3-yl]hexahydroindolizin-3(2H)-one]",20.4,469,
"Nc1nccn2c([C@@H]3CC[C@H]4CCC(=O)N4C3)nc(-c3ccc(C(O)c4cccc(C(F)(F)F)c4)cc3)c12 (stereo partly drawn) [Example 73, (6R,8aS)-6-[8-amino-1-(4-{hydroxy[3-(trifluoromethyl)phenyl]methyl}phenyl)imidazo [1,5-a]pyrazin-3-yl]hexahydroindolizin-3(2H)-one]",0.41,1350,
"CC(C)c1cccc([C@@](C)(O)c2ccc(-c3nc([C@@H]4CC[C@H]5CCC(=O)N5C4)n4ccnc(N)c34)cc2)c1 [Example 74, (6R,8aS)-6-[8-amino-1-(4-{(1S)-1-hydroxy-1-[3(1-methylethyl)phenyl]ethyl}phenyl)imidazo[1,5-a]pyrazin-3-yl]hexahydroindolizin-3(2H)-one]",15,,463
